According to article PMC7041945, “Misfolded proteins bind and activate death receptor 5 to trigger apoptosis during unresolved endoplasmic reticulum stress” (eLife, 2020):

Experiments:
[1] = tested on: caspase 8 in HCT116 lysates; assay: Caspase 8 activity (caspase glo 8) of cell lysates / IP inputs; format: cell-based, Homo sapiens; conditions: for average fold change relative to empty: HCT116, rep 1, average of 4 dilutions; for norm RLUs: normalized by lysate quant
In short: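 HCT116 cells lysed in 30 mM HEPES pH 7.2, 150 mM NaCl, 1% Triton X-100 by needle shearing, 30 min on ice, cleared at 1000xg. Supernatant diluted 1:25-1:100 and incubated 45 min at RT with luminogenic caspase-8 substrate; luminescence read.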

DR5 = assay: GFP immunoprecipitation: DR5 (FADD, caspase 8) recovered with GFP-tagged protein, Western blot; format: cell-based, Homo sapiens; conditions: for fraction of DR5 IP'ed: GFP IP
Protocol: 15 cm dishes were seeded with 4 million HCT116 cells and allowed to recover for 18 hr prior to transfection. Samples were then transfected for 24 hr with the GFP-tagged ER trafficked protein, cytosolic GFP, or empty vector. To harvest apoptotic and living cells for each sample, all media and washes were collected. Cells were scraped in 2 ml of cold PBS and combined with the media and washes. Samples were centrifuged to pellet cells, washed with 1 ml cold PBS, and flash frozen in liquid N2 prior to lysis.
The cell pellets were resuspended in 750 μl of 30 mM HEPES pH 7.2, 150 mM NaCl, 1% Triton X-100 with 1x Roche protease inhibitor cocktail (if used subsequently for caspase glo 8 assay) or with 5x Roche protease inhibitor cocktail (if used for immunoblotting). The cells were lysed by mechanical shearing through a 25G needle for 13–15 plunges followed by incubation on ice for 30 min. The lysate was centrifuged at 2000xg for 5 min to remove debris and then incubated with 30 μl of GFP-Trap magnetic agarose beads (Chromotek gtma-20) for 4 hr at 4°C. The beads were then washed with 750 μl of lysis buffer for 10 min at 4°C for three rounds.
For Western blots, samples were eluted by adding 35 μl of non-reducing SDS gel loading buffer (50 mM Tris-HCl (pH 6.8), 2% SDS, 0.1% bromophenol blue, 10% glycerol) and incubated for 10 min at 70°C. The beads were then magnetically removed from the eluted sample before adding DTT to a final concentration of 25 mM. The entire sample was loaded onto the gel and immunoblotted for DR5, caspase 8, and GFP, in that order.

HCT116 cells = assay: Annexin V (and SytoxBlue) flow cytometry for apoptosis; format: cell-based, Homo sapiens
In short: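 HCT116 cells transfected with the specified plasmid for 24 hr, trypsinized and allowed 30 min recovery at 37°C. Stained with Annexin V-AlexaFluor 647 (1:20) for 15 min at RT in the dark; apoptotic cell distribution determined by flow cytometry.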

GAPDH = assay: qPCR of GAPDH (reference transcript); format: cell-based; conditions: Rep 2; for avg. fold induction GAPDH / fold induction GAPDH: vs 24 hr cytoGFP (empty traffo)

## RHO-GFP: GFP-tagged rhodopsin expressed from plasmid
[1]; siDR5
  average fold change relative to empty: 1.375 fold change
[1]; siNT
  average fold change relative to empty: 3.026 fold change
[1]; input lysates GFP vs INS vs RHO, Rep1
  fold change in caspase 8 activity relative to GFP: 3.178 fold
[1]; input lysates GFP vs INS vs RHO, Rep2
  fold change in caspase 8 activity relative to GFP: 3.026 fold
[1]; input lysates GFP vs INS vs RHO, average of Rep1 and Rep2
  avg fold change in caspase 8 activity relative to GFP: 3.102 fold
[1]; lysate inputs, relative to GFP, n=2
  Mean ± SEM (lysate inputs): 3.102 ± 0.07579, n=2
[1]; rep 2, average of 3 dilutions
  average fold change relative to GFP: 3.178 fold change
[1]; rep 2, dilution 0.025
  norm RLUs: 2013.77 RLUs
[1]; rep 2, dilution 0.05
  norm RLUs: 4641.15 RLUs
[1]; rep 2, dilution 0.1
  norm RLUs: 10576.5 RLUs
[1]; vs. GFP
  95% confidence interval of difference (lysate inputs): 1.776 to 2.428
  Difference between means (lysate inputs): 2.102 ± 0.07579
DR5; sheet 2018-04-13 rep 2
  fraction of DR5 IP'ed: 0.05356
DR5; sheet 2018-09-20 rep 1
  fraction of DR5 IP'ed: 0.05459
DR5; Rep 1 (second series)
  fraction IP'ed: 0.05356
DR5; Rep 2 (second series)
  fraction IP'ed: 0.05459
DR5; average of all replicates
  % IP'ed: 5.408%
  fraction IP'ed, average: 0.05408
DR5; unpaired t test sheet, GFP n=5, MPZ n=3, INS n=2, RHO n=2
  Mean ± SEM (fraction IP'ed): 0.05408 ± 0.0005162, n=2
DR5; vs. GFP, fraction IP'ed
  95% confidence interval (difference between means): 0.01226 to 0.07547
DR5; vs. GFP, fraction IP'ed, ± SEM
  Difference between means: 0.04386 ± 0.01229
HCT116 cells; HCT116, transfected 24 hr, Nt or DR5 siRNA
  PARP cleavage and annexin V staining: induced PARP cleavage and annexin V staining in a DR5-dependent manner
HCT116 cells; siDR5, N=3
  Mean ± SEM (siDR5), Annexin V: 19 ± 0.033 N=3
HCT116 cells; siDR5 vs. siNt
  95% confidence interval of difference, Annexin V: -22 to -5.1
  Difference between means, Annexin V: -13 ± 3.0
HCT116 cells; siNt, N=3
  Mean ± SEM (siNt), Annexin V: 33 ± 3.0 N=3
GAPDH; 3 hr, mean of 3 replicates
  Cq GAPDH: 19.7379
  avg. fold induction GAPDH: 1.004
GAPDH; 3 hr, replicate 1
  2^-(deltaCq) GAPDH: 0.8551
  Cq GAPDH: 19.9638
  Cq(sample) - avg Cq(GAPDH), GAPDH: 0.2259
  fold induction GAPDH: 0.8525
GAPDH; 3 hr, replicate 2
  2^-(deltaCq) GAPDH: 1.128
  Cq GAPDH: 19.5639
  Cq(sample) - avg Cq(GAPDH), GAPDH: -0.174
  fold induction GAPDH: 1.125
GAPDH; 3 hr, replicate 3
  2^-(deltaCq) GAPDH: 1.0366
  Cq GAPDH: 19.686
  Cq(sample) - avg Cq(GAPDH), GAPDH: -0.05187
  fold induction GAPDH: 1.034
GAPDH; 7 hr, mean of 3 replicates
  Cq GAPDH: 19.658
  avg. fold induction GAPDH: 1.016
GAPDH; 7 hr, replicate 1
  2^-(deltaCq) GAPDH: 0.7732
  Cq GAPDH: 20.029
  Cq(sample) - avg Cq(GAPDH), GAPDH: 0.371
  fold induction GAPDH: 0.7709
GAPDH; 7 hr, replicate 2
  2^-(deltaCq) GAPDH: 1.046
  Cq GAPDH: 19.5931
  Cq(sample) - avg Cq(GAPDH), GAPDH: -0.06483
  fold induction GAPDH: 1.043
GAPDH; 7 hr, replicate 3
  2^-(deltaCq) GAPDH: 1.236
  Cq GAPDH: 19.3518
  Cq(sample) - avg Cq(GAPDH), GAPDH: -0.3062
  fold induction GAPDH: 1.233
GAPDH; 24 hr, mean of 3 replicates
  Cq GAPDH: 19.018
  avg. fold induction GAPDH: 1.009
GAPDH; 24 hr, replicate 1
  2^-(deltaCq) GAPDH: 0.8063
  Cq GAPDH: 19.3286
  Cq(sample) - avg Cq(GAPDH), GAPDH: 0.3107
  fold induction GAPDH: 0.8039
GAPDH; 24 hr, replicate 2
  2^-(deltaCq) GAPDH: 1.066
  Cq GAPDH: 18.9252
  Cq(sample) - avg Cq(GAPDH), GAPDH: -0.09277
  fold induction GAPDH: 1.063
GAPDH; 24 hr, replicate 3
  2^-(deltaCq) GAPDH: 1.163
  Cq GAPDH: 18.8001
  Cq(sample) - avg Cq(GAPDH), GAPDH: -0.2179
  fold induction GAPDH: 1.16
